Source: article PMC6556873, “Rapid Covalent-Probe Discovery by Electrophile-Fragment Screening” (Journal of the American Chemical Society, 2019)
Where two headings read alike, the source gives them in different places.

Experiments:
BSA = molecular target: T1, BSA (Bos taurus, UniProt P02769); parameters: Intact protein LC/MS covalent labelling, fragments in pools of five, 200 uM each, 4 °C; details: 24 h, 4 °C, pool of five; 200 µM; covalent
T1 construct: gene ALB
Experimental: (§1) Incubations were performed at 200 μM for each compound and 2 μM of protein (10 μM for BSA) for 24 h at 4 °C with moderate shaking. Incubation buffers varied among proteins (PBS pH 7.4 for QSOX1 and BSA; 10 mM HEPES pH 7.5, 0.3 M NaCl, 0.5 mM TCEP for PCAF, UPS8, and NUDT7; […]; 10 mM Na2HPO4 pH 7.5 100 mM NaCl 5 mM β-mercaptoethanol for NV3CP; 20 mM Na phosphate pH 7.5 for NNMT; […]. The reaction was stopped by quenching with formic acid, 0.4% final concentration. Each protein was incubated with the electrophilic library in pools of five compounds per well. The pool’s composition maximized the difference in mass between fragments in the same well. Incubations were performed with each fragment at 200 μM, for 24 h at 4 °C, to allow the screening of proteins that are not stable for long time periods at higher temperatures. Following incubation, we used intact protein [compound left out] chromatography/mass spectrometry (LC/MS) to identify the fragments and quantify their labeling (Figure 3A). […] There was good agreement between the percent of labeling of NUDT7 by 100 random individual compounds and that obtained in pools of five (R^2=0.78; Figure S6 and Data set 2 in the Supporting Information).

NUDT7 = molecular target: T2, NUDT7 (Homo sapiens, UniProt P0C024); parameters: Intact protein LC/MS covalent labelling, fragments in pools of five, 200 uM each, 4 °C; details: 24 h, 4 °C, pool of five; 200 µM; covalent
T2 construct: residues 14-235, E. coli, pNIC28-Bsa4, N-terminal His6 tag removed by TEV, construct 26672 Da
Experimental: as §1

OTUB2 (OTUB2A) = molecular target: T3, OTUB2 (OTUB2A) (Homo sapiens, UniProt Q96DC9); parameters: Intact protein LC/MS covalent labelling, fragments in pools of five, 200 uM each, 4 °C; details: 24 h, 4 °C, pool of five; 200 µM; covalent
T3 construct: full length residues 1-234, E. coli BL21(DE3)-R3, His tag removed by TEV, construct 27312 Da
T3 sequence (Q96DC9 1-234): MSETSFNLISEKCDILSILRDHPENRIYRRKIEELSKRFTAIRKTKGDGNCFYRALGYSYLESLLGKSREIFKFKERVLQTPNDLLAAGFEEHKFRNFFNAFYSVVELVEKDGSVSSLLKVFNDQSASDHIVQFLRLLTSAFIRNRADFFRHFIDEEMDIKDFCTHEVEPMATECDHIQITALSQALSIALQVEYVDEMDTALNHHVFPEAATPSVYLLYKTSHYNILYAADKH
Experimental: as §1

PCAF = molecular target: T4, PCAF (Homo sapiens, UniProt Q92831); parameters: Intact protein LC/MS covalent labelling, fragments in pools of five, 200 uM each, 4 °C; details: 24 h, 4 °C, pool of five; 200 µM; covalent
T4 construct: gene KAT2B
Experimental: as §1

in vitro [1] = test: in vitro; parameters: species or system CCD841, HEK293; details: human, hb2 cells, read-out: HB-2 Cells Viability (%)
in vitro [2] = test: in vitro; parameters: species or system HB2, HEK293; details: human, ccd841 cells
in vitro [3] = test: in vitro; parameters: species or system HB2, CCD841; details: human, hek293 cells

T4 sequence (Q92831 whole entry, the tested form may be a part): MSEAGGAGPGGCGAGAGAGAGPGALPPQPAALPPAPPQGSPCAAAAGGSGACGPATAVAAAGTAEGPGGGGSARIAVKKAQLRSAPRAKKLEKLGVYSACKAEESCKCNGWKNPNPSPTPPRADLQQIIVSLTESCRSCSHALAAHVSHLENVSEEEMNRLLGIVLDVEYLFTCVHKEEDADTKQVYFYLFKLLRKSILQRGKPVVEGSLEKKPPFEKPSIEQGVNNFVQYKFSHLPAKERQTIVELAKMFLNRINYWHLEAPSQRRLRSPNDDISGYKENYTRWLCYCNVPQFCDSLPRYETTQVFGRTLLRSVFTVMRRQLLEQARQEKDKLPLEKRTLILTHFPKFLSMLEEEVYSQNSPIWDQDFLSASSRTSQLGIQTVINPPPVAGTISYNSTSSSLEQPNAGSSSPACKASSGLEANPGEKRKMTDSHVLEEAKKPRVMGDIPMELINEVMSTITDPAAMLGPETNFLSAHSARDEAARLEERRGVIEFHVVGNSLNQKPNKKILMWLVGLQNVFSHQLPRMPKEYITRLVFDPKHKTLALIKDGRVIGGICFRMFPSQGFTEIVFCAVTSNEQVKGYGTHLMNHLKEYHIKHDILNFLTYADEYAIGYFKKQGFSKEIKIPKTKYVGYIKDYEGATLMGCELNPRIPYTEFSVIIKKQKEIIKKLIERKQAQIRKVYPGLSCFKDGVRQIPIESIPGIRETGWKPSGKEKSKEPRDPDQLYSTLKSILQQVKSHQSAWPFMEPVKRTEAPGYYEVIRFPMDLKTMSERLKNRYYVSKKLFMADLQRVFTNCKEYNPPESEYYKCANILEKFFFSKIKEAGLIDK
T2 sequence (P0C024 14-235): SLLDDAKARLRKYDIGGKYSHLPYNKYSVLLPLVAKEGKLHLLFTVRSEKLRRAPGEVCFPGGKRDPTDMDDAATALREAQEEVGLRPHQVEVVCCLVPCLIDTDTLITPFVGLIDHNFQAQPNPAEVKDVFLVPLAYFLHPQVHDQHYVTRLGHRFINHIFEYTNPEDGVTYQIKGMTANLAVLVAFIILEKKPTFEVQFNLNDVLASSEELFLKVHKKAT
T1 sequence (P02769 whole entry, the tested form may be a part): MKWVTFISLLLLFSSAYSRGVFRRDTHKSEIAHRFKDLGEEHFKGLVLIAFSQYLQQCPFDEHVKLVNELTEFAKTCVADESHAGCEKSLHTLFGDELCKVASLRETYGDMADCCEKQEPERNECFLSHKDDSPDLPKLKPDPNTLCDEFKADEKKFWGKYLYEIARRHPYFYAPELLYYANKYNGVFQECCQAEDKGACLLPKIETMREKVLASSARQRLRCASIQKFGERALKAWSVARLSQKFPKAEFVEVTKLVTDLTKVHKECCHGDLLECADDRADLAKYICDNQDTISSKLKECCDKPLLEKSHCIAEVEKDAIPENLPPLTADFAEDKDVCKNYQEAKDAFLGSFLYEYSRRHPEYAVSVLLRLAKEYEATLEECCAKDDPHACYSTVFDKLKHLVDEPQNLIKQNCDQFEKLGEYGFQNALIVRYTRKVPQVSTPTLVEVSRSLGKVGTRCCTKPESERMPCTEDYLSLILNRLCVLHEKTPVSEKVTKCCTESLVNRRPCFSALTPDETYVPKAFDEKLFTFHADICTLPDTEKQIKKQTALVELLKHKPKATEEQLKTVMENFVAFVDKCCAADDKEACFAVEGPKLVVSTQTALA

Compound | BSA (BSA) | NUDT7 (NUDT7) | OTUB2 (OTUB2 (OTUB2A)) | PCAF (PCAF) | viability at 48 h, 10 µM (in vitro [1]) [%] | viability at 48 h, 10 µM (in vitro [2]) [%] | viability at 48 h, 10 µM (in vitro [3]) [%]
CC(C)C(C#N)N1CCN(C(=O)CCl)CC1 (centres unmarked) [PCM-0102263] | 0 | 0.17 | 0.31 | 0 | 64 | 65.2 | 13.9
Cc1csc(N(C(=O)CCl)c2ccccc2)n1 [PCM-0102265] | 0 | 0.19 | 0.06 | 0 | 12.6 | 36.8 | 48.6
O=C(CCl)N1c2ccccc2OCC1c1ccccc1 (centres unmarked) [PCM-0102266] | 0 | 0.11 | 0 | 0 | 56.8 | 57.5 | 52.1
CC(=O)c1ccc(N2CCN(C(=O)CCl)CC2)c(F)c1 [PCM-0102273] | 0 | 0.2 | 0 | 0 | 4.9 | 38.5 | 2.2
CNC(=O)CNC(=O)CCl [PCM-0102279] | 0.09 | 0 | 0.1 | 0 | 108 | 97.3 | 112
CC(=O)c1cccc(N2Cc3ccccc3C2=NC(=O)CCl)c1 [PCM-0102283] | 0 | 0 | 0 | 0 | 99.6 | 99.5 | 75
CN(C)S(=O)(=O)c1ccc2c(c1)CCCN2C(=O)CCl [PCM-0102285] | 0 | 0 | 0 | 0 | 21.6 | 53.5 | 2.2
Cl.O=C(CCl)N1CCN(Cc2cccc3ccccc23)CC1 [PCM-0102287] | 0 | 0 | 0.29 | 0 | 9.4 | 21.7 | 19.9
O=C(CCl)NC1CS(=O)(=O)CC1Cl (centres unmarked) [PCM-0102291] | 0 | 0.12 | 0 | 0 | 99.6 | 76.3 | 91.6
CC1CCCCC1NC(=O)NC(=O)CCl (centres unmarked) [PCM-0102292] | 0 | 0 | 0.24 | 0 | 52.8 | 69 | 48.6
O=C(CCl)N1N=C(c2cccs2)CC1c1ccco1 (centres unmarked) [PCM-0102295] | 0 | 0.46 | 0.06 | 0 | 5 | 7.9 | 1.4
N#CC1(N2CCN(C(=O)CCl)CC2)CCCCC1 [PCM-0102303] | 0 | 0 | 0.07 | 0 | 103 | 107 | 91.6

Continued, in another order:

BSA (BSA) | NUDT7 (NUDT7) | OTUB2 (OTUB2 (OTUB2A)) | PCAF (PCAF) | Compound | viability at 48 h, 10 µM (in vitro [1]) [%] | viability at 48 h, 10 µM (in vitro [2]) [%] | viability at 48 h, 10 µM (in vitro [3]) [%]
0 | 0.3 | 0.09 | 0 | Cc1c(C#N)c(NC(=O)CCl)n(-c2ccccc2)c1C [PCM-0102261] | 42.5 | 75.1 | 7.8
0 | 0 | 0.63 | 0 | Cc1nc(-c2cccc(NC(=O)CCl)c2)cs1 [PCM-0102262] | 5.4 | 29.7 | 1.7
0 | 0 | 0.13 | 0 | Cc1sc2nc(-c3cccc(NC(=O)CCl)c3)[nH]c(=O)c2c1C [PCM-0102264] | 64.6 | 92.8 | 61.2
0 | 0 | 0.51 | 0 | Cc1ccc(C(C)NC(=O)CCl)cc1C (centres unmarked) [PCM-0102270] | 80.2 | 78.1 | 67.9
0 | 0.32 | 0.73 | 0 | CC(NC(=O)CCl)c1cccc2ccccc12 (centres unmarked) [PCM-0102275] | 61.6 | 70.5 | 47.3
0 | 0.24 | 0.36 | 0 | O=C(CCl)Nc1ccc(OC(F)(F)F)cc1 [PCM-0102276] | 13.3 | 64.9 | 9.2
0.09 | 0.09 | 0.24 | 0 | O=C(CCl)Nc1ccc(I)cc1 [PCM-0102278] | 18.7 | 57.1 | 4.9
0 | 0 | 0.22 | 0 | O=C(CCl)NCc1cccs1 [PCM-0102280] | 94.3 | 81.3 | 82
0 | 0 | 0.28 | 0 | O=C(CCl)Nc1cc(F)ccc1F [PCM-0102284] | 38.2 | 58.8 | 17.7
0 | 0.33 | 0 | 0 | N#Cc1c(NC(=O)CCl)sc2c1CCCCC2 [PCM-0102286] | 44.3 | 73.9 | 39.9
0 | 0.06 | 0 | 0 | O=C(CCl)Nc1cc(Cl)ccc1Cl [PCM-0102288] | 40.7 | 70.8 | 38.4
0 | 0 | 0 | 0 | O=C1CN(C(=O)CCl)c2ccc(C(F)(F)F)cc2N1 [PCM-0102289] | 89.3 | 96.4 | 94.7
0 | 0.89 | 0 | 0 | O=C(CCl)Nc1nc2ccc(F)cc2s1 [PCM-0102294] | 53 | 62.7 | 76.7
0 | 0.54 | 0.38 | 0 | Cn1nc(-c2ccc(Cl)cc2)cc1NC(=O)CCl [PCM-0102296] | 1.6 | 4.5 | 0.5
0 | 0.27 | 0.67 | 0 | O=C(CCl)Nc1cc2c(cc1Br)OCCO2 [PCM-0102299] | 15.8 | 62.8 | 12.6
0 | 0.11 | 0.83 | 0 | CCc1cc(C(=O)NNC(=O)CCl)sc1C [PCM-0102300] | 45.9 | 74.3 | 75.8
0.13 | 0 | 0.59 | 0 | Cc1cc(CNC(=O)CCl)ccc1F [PCM-0102305] | 85.5 | 80.7 | 57.8
